Assay results taken from patent publication US20250073202A1, “METHODS TO TREAT RENAL DISORDERS USING CALCIUM CHANNEL INHIBITORS” (The Trustees of Indiana University, priority 2018, published 2025).
“Also recorded” adds a separate entry of the source. Marks after values point to notes of the source that are not given here.

What was measured:
[1] = tested on: renal ischemia reperfusion injury; experiment: Bilateral renal ischemia/reperfusion (I/R) injury in rats, 24 hours after reperfusion (Study II); assay type: in vivo, rat
Protocol: All studies used male Sprague-Dawley rats (250-300 g) that were purchased from Envigo (Indianapolis, IN). Rats were anesthetized with a cocktail of ketamine (100 mg·kg^−1, KetoVed, Vedco Inc, St. Joseph, MO) and xylazine (50 mg·kg^−1, AnaSed, Lloyd Inc, Shenandoah IA). Rats were placed on a heated surgical table to maintain body temperature. A midline incision and either unilateral (left) or bilateral renal ischemia (as indicated in Results) was induced by applying micro-aneurism clamps on the renal pedicles for a period of 40 min. Re-establishment of perfusion was verified by visual examination following removal of the clamps. Rats were provided post-operative analgesia using buprenorphine-SR (1 mg·kg^−1).
(§1) Rats were allowed to recover for various periods of time as described in the Results. In Study I, lymphocytes were studied in vitro after recovery for either 2 or 7 days following I/R or sham surgery for evaluation of function in vitro or for FACS analysis. In Study II, the effect of SOCE on kidney injury was studied with the inhibitor YM58483/BPT2 (N-[4-[3,5-Bis(trifluoromethyl)-1H-pyrazol-1-yl]phenyl]-4-methyl-1,2,3-thiadiazole-5-carboxamide; Tocris/Bio-Techne Minneapolis, MN). Rats were pretreated p.o. 2-3 hours prior to surgery with YM58483.BPT2 (1 mg·kg^−1) in sugar-free chocolate pudding following dilution in 100% EtOH, at, a dose previously shown to affect T cell activation in rats. In some experiments, rats were also treated with the IL17Rc (150 ng/day i.p; R&D Systems). In addition, one experiment utilized a model of rhabdomyolysis, induced by injection of 50% glycerol (10 ml/kg) into the hindlimb muscle of rats following 16 hours of water restriction.
To measure creatinine, tail blood was collected in heparin containing tubes and centrifuged to collect plasma. Plasma creatinine was measured using a Pointe Scientific Analyzer and Creatinine Assay reagents using methods outlined by the manufacturer (Pointe Scientific, Canton MI). Urine was collected for 24 hours by placing rats in metabolic cages and urine volume was determined gravimetrically. Urine creatinine was measured using a colorimetric assay adopted for microplate readers. Creatinine clearance was measured using UCr*V/PCr. […]
(§2) Freshly harvested kidneys were minced and digested in liberase (2 μg/ml. Roche, Indianapolis IN) for 15 min at 37° C. using Gentle MACs (Miltenyli, San Diego, CA). The digested tissue was filtered through a 100-μm mesh and washed with RPMI containing 10% fetal bovine serum (Invitrogen). Mononuclear cells were isolated using Percol (Sigma) density gradient centrifugation.
(§3) To evaluate protein expression of IL17 or Orai1, Orai2 or Orai3, cells were restimulated with PMA and ionomycin for 6 hours in the presence of monensin (Golgistop, 1 μg·ml, BD Biosciences) permeabilized with saponin ([…]) and stained with relevant antibody. Cells were scanned using flow cytometry (FACSCalibur, BD Biosciences, San Jose, CA) and scans were analyzed using Flowjo software (Tree Star, Ashland, OR).
The effect of SOCE on early ischemic kidney injury was studied with the inhibitor YM58483/BPT2 (N-[4-[3,5-Bis(trifluoromethyl)-1 H-pyrazol-1-yl]phenyl]-4-methyl-1,2,3-thiadiazole-5-carboxamide; Tocris/Bio-Techne Minneapolis, MN). Rats were pretreated 2-3 hours prior to surgery, p.o. in sugar-free chocolate pudding following dilution in 100% EtOH, at 1 mg·kg^−1, a dose previously shown affect T cell activation in rats. To evaluate if SOCE influences Th17 cells in AKI, rats were fed YM58483/BPT2 approximately 2 hours prior to […] and reperfusion. […] YM58483/2BPT2 also attenuated the infiltration of total CD4+ and CD8+ T-cells, B-cells, and dendritic cells following I/R (FIGS. 3C, 3D, 3E, and 3F).

[2] = tested on: glycerol-induced kidney injury; experiment: Glycerol-induced kidney injury (rhabdomyolysis model of AKI) in rats, 24 hours following injection; assay type: in vivo, rat
Text: as §1
To measure creatinine, tail blood was collected in heparin containing tubes and centrifuged to collect plasma. Plasma creatinine was measured using a Pointe Scientific Analyzer and Creatinine Assay reagents using methods outlined by the manufacturer (Pointe Scientific, Canton MI). Urine was collected for 24 hours by placing rats in metabolic cages and urine volume was determined gravimetrically. Urine creatinine was measured using a colorimetric assay adopted for microplate readers. Creatinine clearance was measured using UCr*V/PCr.
as §2, §3

AKI-primed CD4+ cells = experiment: Fura-2 imaging of intracellular Ca2+ responses in AKI-primed CD4+ cells; assay type: cell-based, rat; settings: superfusate with Ang II and elevated Na+; to levels similar to sham
Protocol: To assess Ca^2+ responses, fura2 imaging was performed. Briefly, isolated CD4+ T cells were loaded with fura-2AM (2.5 μM, Sigma, St. Louis, MO) for 45 min, washed, placed on poly-lysine (Sigma) coated coverslips and placed in a superfusion chamber with physiological salt solution (PSS) containing 2 mM Ca^2+. The chamber was mounted on an inverted epifluorescence microscope and signal measured with alternating excitation at 340 and 380 nm and emission at 510 nm using the InCa^2+-imaging system (Intracellular Imaging Systems, Cincinnati, OH). Data were acquired at 1.5 Hz and representative tracings were smoothed to the 10 nearest neighbor points using GraphPad Prism. For analysis, an increase in signal intensity of >1 standard deviation from baseline was considered a positive response. Frequency of responding cells was determined from an average 53±19 cells for each animal.

human blood CD4+ cells = experiment: In vitro stimulation of human blood CD4+ cells from AKI patients with elevated sodium, IL17 response; assay type: cell-based; settings: 170 mM Na+, overnight (~12 hours)
Protocol: For in vitro stimulation of human blood cells, primary T cells were isolated from fresh blood using Straight whole blood CD4 kit from Miltneyli Biotech (Miltenyli, San Diego, CA) according to manufactures' protocol. CD4+T cells were plated at a density of 1×10^6 cells/mL in RPMI medium supplemented with FBS. Cells were stimulated with human anti-CD3/CD28 dynabeads (Gibco; Catalogue no 11161D) along with labeled treatment overnight (˜12 hours). T cells were harvested and incubated with monensin for 6 hours, prior to staining for IL-17 (Table 4).

[3] = 24 hours following I/R, listed as YM58483/2BPT2
[4] = 24 hours following I/R, listed as YM58483/BPT
[5] = 24 hours following ischemia reperfusion, mean ± S.E.
[6] = 24 hours following glycerol injection, mean ± S.E.

SMILES: Cc1nnsc1C(=O)Nc1ccc(-n2nc(C(F)(F)F)cc2C(F)(F)F)cc1 [YM58483/BPT2, N-[4-[3,5-Bis(trifluoromethyl)-1H-pyrazol-1-yl]phenyl]-4-methyl-1,2,3-thiadiazole-5-carboxamide]
- mRNA expression of kidney injury marker-1 (Kim-1) ([1]; 24 hours after reperfusion, 1 mg/kg p.o. pretreatment): significantly attenuated
- level of renal injury as plasma creatinine (vs vehicle) ([1]; 24 hours after reperfusion, YM58483 1 mg/kg p.o. 2-3 hours prior to surgery): significantly attenuated; also recorded: significantly reduced
- CD8+ cells in kidney (vs vehicle) ([1]; 24 hours following I/R): did not significantly effect
- Th1 cells post-ischemia ([1]; 24 hours following I/R): did not significantly influence
- Th2 cells post-ischemia ([1]; 24 hours following I/R): did not significantly influence
- infiltration of B-cells in kidney ([1]; 24 hours following I/R): attenuated
- infiltration of dendritic cells in kidney ([1]; 24 hours following I/R): attenuated
- kidney CD4+/IL17+ cells (vs vehicle) ([1]; 24 hours following I/R): reduction was observed
- reduction of total IL17 expressing cells relative to vehicle ([1]; 24 hours following I/R, 1 mg/kg p.o. pretreatment): ~78%
- infiltration of total CD4+ T-cells in kidney (vs vehicle) ([1]; 24 hours following I/R, listed as YM58483/2-BPT): attenuated
- CD8+ cells in kidney (vs vehicle) [1, 3]: attenuated
- infiltration of total CD4+ T-cells in kidney (vs vehicle) [1, 3]: attenuated
- infiltration of total CD4+ T-cells in kidney (vs vehicle) [1, 4]: significantly reduced
- kidney CD4+/IL17+ cells (vs vehicle) [1, 4]: significantly reduced
- CD4+ renal lymphocyte content [1, 5]: 26156 ± 4365 cells/gram
- CD4+/IL-17+ cells [1, 5]: 2020 ± 731 cells/gram
- CD8+ cells renal lymphocyte content [1, 5]: 8410 ± 1386 cells/gram
- CD8+IL-17+ cells [1, 5]: 127 ± 23 cells/gram
- Serum Creatinine [1, 5]: 3.7 ± 0.6 mg/dL
- Total IL-17+ cells [1, 5]: 9334 ± 4293 cells/gram
- CD4+ cells per g [2, 6]: 177606 ± 282 cells per g
- CD4+/IL-17+ cells per g [2, 6]: 20622 ± 4191* cells per g
- CD8+ cells per g [2, 6]: 342433 ± 76011 cells per g
- CD8+/IL-17+ cells per g [2, 6]: 19711 ± 6499* cells per g
- Serum Creatinine [2, 6]: 3.3 ± 0.4* mg/dl
- Total IL-17+ cells per g [2, 6]: 60109 ± 21033* cells per g
- rise in serum creatinine ([2]; glycerol model, 24 hours): significantly attenuated
- total number of IL17+ expressing cells ([2]; glycerol model, 24 hours): significantly attenuated
- percentage of Ca2+-responding cells (AKI-primed CD4+ cells): significantly attenuated
- IL17 response to elevated extracellular sodium (human blood CD4+ cells): inhibited
